Consider two molecules from patent publication US20040265877A1, “Methods for detecting presence of cellular constituents” (Marantech Holding, LLC, priority 2003, published 2004).

In one series the test system is HeLa cells. Kind of series: Binding/staining of HeLa cervical carcinoma cells. The class given is cell-based, human. The protocol: (§1) This example is directed to a reagent kit to determine the presence of cancer cells in cervical specimens (i.e., Pap (Papanicolaou test) smears).
Next, HeLa cells were mixed with epithelial (cheek) cells to create a simulated Pap smear.
(§2) TST solution (soluble TST) was prepared by adding 5 mg of TST to 1 ml of dd H2O. Inadvertent “grounding” of the TST was avoided. The solution was mixed gently and thoroughly by pipetting up and down. Formation of air bubbles and excessive agitation were avoided. The solution was centrifuged for 15 seconds at 1,000 rpm to settle excess TST. Soluble TST was added to a sample slide (picking up and depositing undissolved TST was avoided). The slide was incubated at room temperature for 10 minutes, followed by rinsing by either dipping the slide five times in a beaker of distilled water, or using the dual pipette method to remove excess TST. Dual pipette method: Using two pipettes, water was slowly added to the slide at one corner while the solution was simultaneously drawn up into the other pipette from a distal corner of the sample. Without intending to be bound by theory, the idea was to create somewhat of a flow across the sample, to gently wash it. The sample was quickly and gently blotted once or twice with a cloth wipe.
The enhancement solution was then prepared. One drop each of the 2-part enhancer was added to a microfuge tube. The mixture was vortexed for 40 seconds, and then immediately added it to the sample (an optional very brief centrifuge step at low speed in order to settle the liquid at the bottom of the tube was performed prior to addition to the sample). The sample was incubated at room temperature for 20-30 minutes. Optionally, the progress of the reaction under was observed using a light microscope. The slide was rinsed by either dipping the slide 5 times into a beaker of distilled water, or by the dual pipette method described above. The sample was quickly and gently blotted once or twice with a cloth wipe, and the sample was allowed to dry. The results were observed either under a light microscope or with the naked eye.

For series [1], the system named is Herpes virus infected cells. Conditions: Pap smear samples, FIG. 4. The protocol: as §2
The enhancement solution was then prepared. One drop each of the 2-part enhancer was added to a microfuge tube. The mixture was vortexed for 40 seconds, and then immediately added it to the sample (an optional very brief centrifuge step at low speed in order to settle the liquid at the bottom of the tube was performed prior to addition to the sample). […]

The target of series [2] is tNOX (Homo sapiens, UniProt Q16206). Conditions: BT-20 mammary cancer cell line. Here is the method: (§3) NADH oxidase (NOX) activity was determined (as the disappearance of it measured spectrophotometrically at 340 nm) in a reaction mixture (25 mM Tris-MES buffer at pH 7.2, KCN 1 mM) to inhibit low levels of mitochondrial oxidase activity, and 150 micromoles […] at 37° C. with stirring. Activity was measured with pairs of Hitachi U3210 Spectrophotometers. Assays were initiated by the addition of NOX and tetrasilver tetroxide (Ag4O4) for one minute and were repeated on the same sample every 1.5 minutes over a 45-minute period. A mM absorption coefficient of 6.2 was used to determine specific activity.
(§4) Protein disulfide-thiol interchange activity associated with tNOX was measured using the dipyridyldithio substrate dithiodipyridine (DTDP). The assay was performed in 50 mM Tris-MES buffer (pH 7.0) and was initiated by the addition of 0.5 micromoles DTDP in 5 microliters DMSO as a control. The reaction was monitored by tracking an increase in absorption at 340 nm using DTDP, specific activity being calculated using a mM absorption coefficient of 6.2. The spectrophotometric assays were performed simultaneously with the two spectrophotometers and DMSO controls.

In series [3] the test system is tNOX. As to conditions: HeLa cells; concentration of one part per million (PPM). The protocol: as §3, §4
For series [4], the target named is CNOX (Homo sapiens, UniProt Q8TC92). As to conditions: MCF-10A human mammary epithelia; elevated concentrations far above 1 PPM. The protocol: as §3, §4
(§5) The procedure was repeated with plasma protein derived from soybean seeds containing CNOX growth regulator.

In series [5] the test system is CNOX. As to conditions: soybean seed plasma protein; elevated concentrations far above 1 PPM. The protocol: as §3, §4, §5
The test system of series [6] is gynecological yeast infection. Conditions: 10 ppm silver tetroxide and 40 ppm sodium persulfate; cited from earlier work.
In a further series the test system is normal cells. The protocol:
as §1, §2
The enhancement solution was then prepared. One drop each of the 2-part enhancer was added to a microfuge tube. […]

Series [7] concerns non-tumor cells (MCF-10A). As to conditions: FIGS. 10A-10B. An excerpt: (§6) A non-spectrophotometric characterization technique, i.e., scanning electron microscopy (SEM) was used with the procedure set forth in Example VIII.
The subject of the next series is tumor cells (HeLa). Conditions: FIG. 7.
Description: as §6

Another series deals with athlete's foot. As to conditions: single case, solution of 100 ppm of the composition, topical; cited from earlier work.
Series [8] has as its system liver cells expressing tNOX. As to conditions: after computer photography enhancement, 40x. Here is the method: (§7) Frozen liver slices were obtained, and the two step process described below for non-aqueous testing was performed. The results were viewed with a microscope and computer enhanced. Frozen liver slices from a wild type mouse (non-cancerous) were compared with frozen liver slices from a transgenic mouse expressing tNOX on its liver cells.
(§8) TST solution was prepared by adding 5 mg of TST to 1 ml of dd H2O. Inadvertent “grounding” of the TST was avoided. The solution was mixed gently and thoroughly by pipetting up and down. Air bubbles and excessive agitation were avoided. The solution was centrifuged for 15 seconds at 1,000 rpm to settle excess TST.
(§9) Soluble TST was added to a sample section, while avoiding undissolved TST. The sample was incubated at room temperature for 10 minutes. Excess TST was removed by dipping the section several times in a beaker of distilled water. The sample was quickly and gently blotted once or twice with a cloth wipe.
(§10) The enhancement solution was prepared by placing one drop each of the two-part enhancer into a microfuge tube. The mixture was vortexed for 40 seconds, and immediately added to the sample. The solution was optionally centrifuged briefly at low speed in order to settle the liquid at the bottom of the tube prior to addition to the sample. The sample was incubated at room temperature for 20-30 minutes.

Another series relates to wild type mouse liver. As to conditions: after computer photography enhancement, 40x. The protocol:
as §7, §8, §9, §10

The conditions of series [9]: single intravenous injection at about 40 ppm of human blood; no reported loss of liver function; cited from earlier work.
The subject of the next series is toenail fungus. Conditions: single case, 25% suspension of the composition, topical; cited from earlier work.

Sequence of CNOX (Homo sapiens, UniProt Q8TC92) (Q8TC92 whole entry): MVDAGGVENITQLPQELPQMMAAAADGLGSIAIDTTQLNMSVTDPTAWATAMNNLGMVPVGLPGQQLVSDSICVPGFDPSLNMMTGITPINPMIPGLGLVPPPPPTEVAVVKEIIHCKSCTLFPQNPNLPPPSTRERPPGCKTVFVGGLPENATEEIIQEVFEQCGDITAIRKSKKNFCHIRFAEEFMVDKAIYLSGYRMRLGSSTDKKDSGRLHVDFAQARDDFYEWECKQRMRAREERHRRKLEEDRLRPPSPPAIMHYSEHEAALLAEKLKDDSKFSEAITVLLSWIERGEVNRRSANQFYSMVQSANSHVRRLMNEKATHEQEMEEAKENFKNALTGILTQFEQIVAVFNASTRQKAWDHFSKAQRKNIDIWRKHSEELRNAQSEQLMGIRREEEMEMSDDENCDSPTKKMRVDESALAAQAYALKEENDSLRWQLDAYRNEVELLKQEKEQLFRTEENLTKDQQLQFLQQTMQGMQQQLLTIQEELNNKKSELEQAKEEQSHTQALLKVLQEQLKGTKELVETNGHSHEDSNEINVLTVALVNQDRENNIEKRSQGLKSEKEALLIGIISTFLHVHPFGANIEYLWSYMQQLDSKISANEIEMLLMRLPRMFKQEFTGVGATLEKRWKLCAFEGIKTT
Sequence of tNOX (Homo sapiens, UniProt Q16206) (Q16206 whole entry): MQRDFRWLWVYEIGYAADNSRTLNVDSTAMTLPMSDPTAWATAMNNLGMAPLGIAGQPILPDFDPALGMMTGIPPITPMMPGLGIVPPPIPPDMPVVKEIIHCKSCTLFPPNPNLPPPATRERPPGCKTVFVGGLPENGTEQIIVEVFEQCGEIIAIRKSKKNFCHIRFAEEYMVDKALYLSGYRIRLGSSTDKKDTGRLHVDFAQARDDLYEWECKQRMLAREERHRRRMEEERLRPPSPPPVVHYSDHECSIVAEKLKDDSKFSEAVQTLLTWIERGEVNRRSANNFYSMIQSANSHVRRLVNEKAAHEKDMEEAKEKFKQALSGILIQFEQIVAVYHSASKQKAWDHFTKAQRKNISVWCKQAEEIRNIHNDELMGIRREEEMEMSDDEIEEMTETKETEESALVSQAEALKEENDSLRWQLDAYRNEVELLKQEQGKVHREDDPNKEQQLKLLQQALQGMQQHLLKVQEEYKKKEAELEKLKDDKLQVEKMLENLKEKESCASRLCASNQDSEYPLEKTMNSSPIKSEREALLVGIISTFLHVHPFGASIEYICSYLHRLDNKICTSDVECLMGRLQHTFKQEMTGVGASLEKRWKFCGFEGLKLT

Take `[O]=[Fe].[O]=[Fe][O][Fe]=[O]` [Fe3O4, triiron tetroxide]: the “staining of HeLa cells” value in the series with HeLa cells (Fe3O4, FIGS. 9A-9C) is “selectively stained”.
Turning to `[Ag+].[Ag+].[Ag+].[Ag+].[O-2].[O-2].[O-2].[O-2]` [tetrasilver tetroxide], in [1], the “staining of infected cells” value is “brown staining”. Further, the tNOX activity inhibition result at tNOX [2] is “the same as in Example VIfI”; in the series with tNOX [3], “inhibited completely”. Also, the “effect on CNOX” value on CNOX [4] and with CNOX [5] was “not affected at all” in each case. Besides, the results for the outcome of infection (in series [6]; in the series with athlete's foot; in the series with toenail fungus) were “curing”, “cure” and “cure”, respectively. In the series on normal cells, the “binding to normal cells” value was “without binding”. For the same molecule, the nuclear staining entry with normal cells (Pap smear samples, FIG. 4) is “no nuclear staining”; in the series on HeLa cells (Pap smear samples, FIG. 4), “black staining of nuclei”. Besides, the “binding to HeLa cultured cervical cell lines” value with HeLa cells is “bound covalently”. The “distinguishing HeLa cells from epithelial (cheek) cells” value with HeLa cells (simulated Pap smear, HeLa mixed with cheek cells) was “selective binding with and darkening of the cytoplasmic membrane of the HeLa cells”. Besides, the entries for the “binding by SEM” value (in series [7]; with tumor cells (HeLa)) were “non-binding” and “actual binding”, respectively. For the same molecule, the “staining of liver slices” value is “black nuclei and black borders” in series [8]; “did not” in the series on wild type mouse liver. In addition, in series [9], the liver adverse effect entry is recorded as “hepatomegaly”.
